# From article PMC9228270, “Design, Synthesis, In Silico Studies and Inhibitory Activity towards Bcr-Abl, BTK and FLT3-ITD of New 2,6,9-Trisubstituted Purine Derivatives as Potential Agents for the Treatment of Leukaemia” (Pharmaceutics, 2022)
# Where “and” joins values, the source holds several entries; their conditions need not be identical. Identical values can stand only once. Like-named read-outs stand apart in the source and are kept apart here.
# How the values were obtained:
# [1] = test system: CEM; experiment: Cytotoxicity assay (resazurin), CEM; assay type: cell-based; conditions: Homo sapiens, CCRF-CEM, 72 h, three independent experiments, range 0.1 to 25 µM
# Protocol: (§1) Cytotoxicity assays for the purines were quantified using the resazurin method, a dye to measure redox reactions occurring in the mitochondria of live cells. The cells were treated by tested compounds (in triplicate, six different doses) for 72 h.
# [2] = test system: HL-60; experiment: Cytotoxicity assay (resazurin), HL-60; assay type: cell-based; conditions: Homo sapiens, 72 h, three independent experiments, range 0.1 to 25 µM
# Protocol: as §1
# [3] = test system: K562; experiment: Cytotoxicity assay (resazurin), K562; assay type: cell-based; conditions: Homo sapiens, 72 h, three independent experiments, range 0.1 to 25 µM
# Protocol: as §1
# [4] = target: T1, BTK (Homo sapiens, UniProt Q06187); experiment: Recombinant kinase radioassay, BTK; assay type: biochemical
# T1 construct: purchased ProQinase
# Protocol: (§2) Recombinant kinase inhibition was measured using standard radioassay. Bcr-Abl1 and Cdk-2/cyclin E kinases were produced in-house, FLT3-ITD and BTK were purchased from ProQinase. The kinases were assayed with suitable substrates (500 µM peptide […] for Abl, 1 mg/mL histone H1 for Cdk-2, 100 µM poly (Glu:Tyr; 4:1)) in the presence of ATP (1 µM for Bcr-Abl, 15 µM for Cdk-2 and BTK), 0.05 µCi [γ-^33P]ATP and the test compound in reaction buffer (60 mM HEPES-NaOH, pH 7.5, 3 mM MgCl2, 3 mM MnCl2, 3 µM Na orthovanadate, 1.2 mM DTT, 2.5 µg/50 µL PEG20.000). The reactions were stopped by adding 3% aq. H3PO4. P-81 phosphocellulose (Whatman) was used to separate phosphorylated substrates. Kinase activity was quantified using a FLA-7000 digital image analyser.
# [5] = test system: Ramos; experiment: Cytotoxicity assay (resazurin), Ramos; assay type: cell-based; conditions: Homo sapiens, 72 h, three independent experiments, range 0.1 to 25 µM
# Protocol: as §1
# [6] = target: T2, FLT3-ITD (Homo sapiens, UniProt P36888, ITD); experiment: Recombinant kinase radioassay, FLT3-ITD; assay type: biochemical
# T2 sequence (P36888 27-993): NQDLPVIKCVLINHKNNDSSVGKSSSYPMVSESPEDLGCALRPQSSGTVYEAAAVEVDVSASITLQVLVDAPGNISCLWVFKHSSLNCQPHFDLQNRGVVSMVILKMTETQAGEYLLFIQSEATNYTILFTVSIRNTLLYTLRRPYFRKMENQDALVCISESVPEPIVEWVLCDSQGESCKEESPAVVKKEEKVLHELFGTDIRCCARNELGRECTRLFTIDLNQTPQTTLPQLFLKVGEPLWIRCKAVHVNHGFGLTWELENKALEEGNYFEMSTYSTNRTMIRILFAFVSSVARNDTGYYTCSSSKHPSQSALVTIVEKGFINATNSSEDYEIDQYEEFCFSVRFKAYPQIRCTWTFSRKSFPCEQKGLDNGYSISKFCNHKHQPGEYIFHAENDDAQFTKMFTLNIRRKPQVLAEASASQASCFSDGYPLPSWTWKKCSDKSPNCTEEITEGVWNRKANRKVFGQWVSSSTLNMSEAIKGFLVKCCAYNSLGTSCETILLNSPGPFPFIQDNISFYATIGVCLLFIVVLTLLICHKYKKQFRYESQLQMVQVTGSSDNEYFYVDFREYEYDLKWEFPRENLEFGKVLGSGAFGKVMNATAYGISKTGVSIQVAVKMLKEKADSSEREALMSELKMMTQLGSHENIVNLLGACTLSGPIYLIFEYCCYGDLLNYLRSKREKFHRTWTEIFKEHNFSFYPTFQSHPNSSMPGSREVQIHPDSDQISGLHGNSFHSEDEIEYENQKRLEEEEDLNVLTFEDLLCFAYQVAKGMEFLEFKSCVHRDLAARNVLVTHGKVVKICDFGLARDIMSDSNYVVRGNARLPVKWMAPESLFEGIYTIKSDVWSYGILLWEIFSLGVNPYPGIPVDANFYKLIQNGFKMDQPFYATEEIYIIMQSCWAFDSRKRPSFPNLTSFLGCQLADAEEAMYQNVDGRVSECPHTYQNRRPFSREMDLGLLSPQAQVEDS
# Protocol: as §2
# [7] = target: Bcr-Abl1 (Homo sapiens, UniProt P00519); experiment: Recombinant kinase radioassay, Abl; assay type: biochemical; conditions: ATP 1 µM, at least three independent experiments, range 0.01–100 µM
# Protocol: as §2
# [8] = test system: MV4-11; experiment: Cytotoxicity assay (resazurin), MV4-11; assay type: cell-based; conditions: Homo sapiens, 72 h, three independent experiments, range 0.1 to 25 µM
# Protocol: as §1
# [9] = target: T3, Cdk-2/cyclin E (Homo sapiens, UniProt P24941); experiment: Recombinant kinase radioassay, Cdk-2/cyclin E; assay type: biochemical; conditions: ATP 15 µM, at least three independent experiments, range 0.01–100 µM
# T3 construct: made in house
# Protocol: as §2
# [10] = recombinant kinase, radioassay, ATP 15 µM, at least three independent experiments, range 0.01–100 µM, read-out: IC50 BTK
# [11] = recombinant kinase, radioassay, at least three independent experiments, range 0.01–100 µM, read-out: IC50 FLT3-ITD
# Sequence of Bcr-Abl1 (P00519 27-1130): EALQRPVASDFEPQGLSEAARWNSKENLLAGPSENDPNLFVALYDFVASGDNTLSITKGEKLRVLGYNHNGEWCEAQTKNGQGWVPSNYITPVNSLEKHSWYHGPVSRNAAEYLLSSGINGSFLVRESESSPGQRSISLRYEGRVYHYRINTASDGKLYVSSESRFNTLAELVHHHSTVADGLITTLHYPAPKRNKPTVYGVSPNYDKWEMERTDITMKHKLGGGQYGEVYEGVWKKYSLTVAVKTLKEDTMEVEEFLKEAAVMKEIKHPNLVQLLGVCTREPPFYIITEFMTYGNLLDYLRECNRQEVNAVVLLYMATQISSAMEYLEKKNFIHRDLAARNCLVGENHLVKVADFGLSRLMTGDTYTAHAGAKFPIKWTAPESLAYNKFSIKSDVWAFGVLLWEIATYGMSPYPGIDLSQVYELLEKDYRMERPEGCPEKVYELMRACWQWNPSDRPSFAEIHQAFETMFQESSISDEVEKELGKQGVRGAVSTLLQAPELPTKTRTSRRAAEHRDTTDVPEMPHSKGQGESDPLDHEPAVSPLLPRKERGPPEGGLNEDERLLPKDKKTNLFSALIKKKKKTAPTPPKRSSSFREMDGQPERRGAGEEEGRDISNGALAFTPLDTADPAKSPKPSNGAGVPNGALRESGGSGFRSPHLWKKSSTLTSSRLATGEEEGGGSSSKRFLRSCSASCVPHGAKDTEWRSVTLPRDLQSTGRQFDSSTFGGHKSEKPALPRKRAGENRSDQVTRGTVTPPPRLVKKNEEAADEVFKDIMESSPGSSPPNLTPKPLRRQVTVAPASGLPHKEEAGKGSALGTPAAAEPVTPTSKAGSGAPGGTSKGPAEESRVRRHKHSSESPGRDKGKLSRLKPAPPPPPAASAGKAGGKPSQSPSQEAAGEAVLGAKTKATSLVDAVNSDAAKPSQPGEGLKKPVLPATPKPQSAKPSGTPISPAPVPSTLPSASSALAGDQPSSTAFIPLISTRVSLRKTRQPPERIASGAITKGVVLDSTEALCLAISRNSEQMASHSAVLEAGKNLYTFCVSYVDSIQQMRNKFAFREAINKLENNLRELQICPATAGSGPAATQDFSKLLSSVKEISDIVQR
# T1 sequence (Q06187 whole entry): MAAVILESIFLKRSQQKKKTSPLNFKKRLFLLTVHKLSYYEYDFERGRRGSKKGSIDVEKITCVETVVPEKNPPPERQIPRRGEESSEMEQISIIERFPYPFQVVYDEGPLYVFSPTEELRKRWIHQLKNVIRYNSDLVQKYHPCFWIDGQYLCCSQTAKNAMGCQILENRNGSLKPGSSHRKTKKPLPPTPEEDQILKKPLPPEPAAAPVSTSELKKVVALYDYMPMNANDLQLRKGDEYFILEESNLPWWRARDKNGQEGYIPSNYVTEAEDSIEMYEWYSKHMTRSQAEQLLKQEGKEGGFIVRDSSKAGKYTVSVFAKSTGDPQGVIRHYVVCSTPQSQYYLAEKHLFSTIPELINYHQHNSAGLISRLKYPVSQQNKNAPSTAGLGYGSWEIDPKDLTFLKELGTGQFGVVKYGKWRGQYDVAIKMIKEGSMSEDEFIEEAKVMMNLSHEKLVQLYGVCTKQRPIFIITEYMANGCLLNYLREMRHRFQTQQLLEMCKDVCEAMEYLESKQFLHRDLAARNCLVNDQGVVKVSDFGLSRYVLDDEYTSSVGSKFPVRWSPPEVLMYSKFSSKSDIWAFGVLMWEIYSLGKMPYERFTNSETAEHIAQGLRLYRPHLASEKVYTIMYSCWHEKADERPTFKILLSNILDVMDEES
Structure (SMILES),"IC50 [4, 10]",melting point,"IC50 [6, 11]",IC50 [7],IC50 [9],"IC50 ([4]; -log IC50 in molar concentration, Table S3, read-out: Experimental pIC50, CoMFA BTK (converted))","IC50 ([6]; -log IC50 in molar concentration, Table S3, read-out: Experimental pIC50, CoMFA FLT3 (converted))",GI50 [1],GI50 [2],GI50 [3],GI50 [5],GI50 [8]
"CCCCCCCCn1cnc2c(Nc3cccc(F)c3)nc(Nc3ccc(N4CCN(C)CC4)cc3)nc21 [Compound 5k, N^6-(3-Fluorophenyl)-N^2-(4-(4-methylpiperazin-1-yl)phenyl)-9-octyl-9H-purine-2,6-diamine]",0.97 ± 0.22 µM,181.2 to 183.6 °C,> 20 µM,> 100 µM,25.6 ± 3.27 µM,,,21.3 ± 0.31 µM,2.16 ± 0.48 µM,10 ± 6.31 µM,15.7 ± 0.37 µM,12.4 ± 3.93 µM
"CCCCCCn1cnc2c(Nc3ccccc3)nc(Nc3ccc(N4CCN(C)CC4)cc3)nc21 [Compound 5g, 9-Hexyl-N^2-(4-(4-methylpiperazin-1-yl)phenyl)-N^6-phenyl-9H-purine-2,6-diamine]",0.91 ± 0.02 µM,155.8 to 160 °C,1.91 µM,9.82 ± 1.87 µM,27.9 ± 1.04 µM,,,34.7 ± 1.37 µM,6.11 ± 0.76 µM,15.5 ± 4.98 µM,22.5 ± 1.23 µM,4.27 ± 1.45 µM
"CN1CCN(c2ccc(Nc3nc(Nc4ccc(OC(F)(F)F)cc4)c4ncn(CC5CC5)c4n3)cc2)CC1 [Compound 4h, 9-(Cyclopropylmethyl)-N^2-(4-(4-methylpiperazin-1-yl)phenyl)-N^6-(4-(trifluoromethoxy)phenyl)-9H-purine-2,6-diamine]",0.6 ± 0.22 µM,161 to 162 °C,0.75 µM,0.39 ± 0.08 µM,18.2 ± 2.05 µM,,,15 ± 0.92 µM,1.08 ± 0.31 µM,2.9 ± 0.91 µM,11.7 ± 2.88 µM,2.45 ± 0.09 µM
"CN1CCN(c2ccc(Nc3nc(Nc4ccc(Cl)c(Cl)c4)c4ncn(CC5CC5)c4n3)cc2)CC1 [Compound 4n, 9-(Cyclopropylmethyl)-N^6-(3,4-dichlorophenyl)-N^2-(4-(4-methylpiperazin-1-yl)phenyl)-9H-purine-2,6-diamine]",3.9 ± 0.05 µM,132 to 133 °C,2.53 µM,0.07 ± 0.01 µM,12.9 ± 1.7 µM,,,17.54 ± 0.08 µM,1.52 ± 0.34 µM,5.54 ± 1.56 µM,8.02 ± 1.3 µM,4.81 ± 1.54 µM
"CN1CCN(c2ccc(Nc3nc(Nc4cccc(OC(F)(F)F)c4)c4ncn(CC5CC5)c4n3)cc2)CC1 [Compound 4e, 9-(Cyclopropylmethyl)-N^2-(4-(4-methylpiperazin-1-yl)phenyl)-N^6-(3-(trifluoromethoxy)phenyl)-9H-purine-2,6-diamine]",4.12 ± 0.9 µM,161 to 162 °C,2.32 µM,0.42 ± 0.1 µM,47.7 ± 19.4 µM,,,19.5 ± 0.61 µM,1.4 ± 0.13 µM,5.18 ± 1.68 µM,12.84 ± 0.03 µM,2.88 ± 0.01 µM
"CN1CCN(c2ccc(Nc3nc(Nc4ccc(F)c(Cl)c4)c4ncn(CC5CC5)c4n3)cc2)CC1 [Compound 4m, N^6-(3-Chloro-4-fluorophenyl)-9-(cyclopropylmethyl)-N^2-(4-(4-methylpiperazin-1-yl)phenyl)-9H-purine-2,6-diamine]",2.39 ± 0.43 µM,153 to 155 °C,1.54 µM,0.27 ± 0.05 µM,10.8 ± 3.84 µM,,,13.3 ± 1.58 µM,0.86 ± 0.11 µM,2.57 ± 0.52 µM,7.52 ± 0.41 µM,1.88 ± 0.06 µM
"CN1CCN(c2ccc(Nc3nc(Nc4ccccc4)c4ccn(CC5CC5)c4n3)cc2)CC1 [Compound 12, 7-(Cyclopropylmethyl)-N^2-(4-(4-Methylpiperazin-1-yl)Phenyl)-N^4-Phenyl-7H-pyrrolo[2,3-d]Pyrimidine-2,4-Diamine]",> 20 µM,102.3 to 105.5 °C,> 20 µM,62.3 ± 12.1 µM,46.2 ± 1.49 µM,2.39 µM,1.54 µM,15.5 ± 1.46 µM,3.58 ± 0.65 µM,6.38 ± 1.14 µM,12.8 ± 0.61 µM,8.28 ± 2.9 µM
"CCCCCCn1cnc2c(Nc3cccc(F)c3)nc(Nc3ccc(N4CCN(C)CC4)cc3)nc21 [Compound 5h, N^6-(3-Fluorophenyl)-9-hexyl-N^2-(4-(4-methylpiperazin-1-yl)phenyl)-9H-purine-2,6-diamine]",0.32 ± 0.01 µM,147.1 to 149.9 °C,2.31 µM,> 100 µM,80.8 ± 12.5 µM,,,> 25 µM,8.77 ± 3.84 µM,24.7 ± 0.41 µM,> 25 µM,3.54 ± 1.53 µM

# More lines, in order of falling IC50 [6, 11], values ahead:
"IC50 [4, 10]",melting point,"IC50 [6, 11]",IC50 [7],IC50 [9],"IC50 ([4]; -log IC50 in molar concentration, Table S3, read-out: Experimental pIC50, CoMFA BTK (converted))","IC50 ([6]; -log IC50 in molar concentration, Table S3, read-out: Experimental pIC50, CoMFA FLT3 (converted))",Structure (SMILES),GI50 [1],GI50 [2],GI50 [3],GI50 [5],GI50 [8]
6.01 ± 0.72 µM,164 to 165 °C,1.95 µM,1.21 ± 0.11 µM,31.4 ± 3.18 µM,,,"CN1CCN(C(=O)c2ccc(Nc3nc(Nc4ccccc4)c4ncn(CC5CC5)c4n3)cc2)CC1 [Compound 8a, (4-((9-(Cyclopropylmethyl)-6-(phenylamino)-9H-purin-2-yl)amino)phenyl)(4-methylpiperazin-1-yl)methanone]",> 25 µM,6.64 ± 1.42 µM,8.91 ± 1.64 µM,16.6 ± 0.67 µM,1.24 ± 0.21 µM
22.7 ± 2.88 µM,134 to 135 °C,1.8 µM,1.78 ± 0.07 µM,15.5 ± 1.7 µM,,,"CN1CCN(c2ccc(Nc3nc(Nc4cccc(C(F)(F)F)c4)c4ncn(CC5CC5)c4n3)cc2)CC1 [Compound 4d, 9-(Cyclopropylmethyl)-N^2-(4-(4-methylpiperazin-1-yl)phenyl)-N^6-(3-(trifluoromethyl)phenyl)-9H-purine-2,6-diamine]",23.78 ± 0.08 µM,0.72 ± 0.16 µM,4.51 ± 0.36 µM,3.83 ± 0.1 µM,2.84 ± 0.29 µM
1.3 ± 0.02 µM,135 to 137 °C,1.5 µM,0.1 µM,22.9 ± 2.08 µM,,,"Cc1cccc(Nc2nc(Nc3ccc(N4CCN(C)CC4)cc3)nc3c2ncn3CC2CC2)c1 [Compound 4c, 9-(Cyclopropylmethyl)-N^2-(4-(4-methylpiperazin-1-yl)phenyl)-N^6-(m-tolyl)-9H-purine-2,6-diamine]",16.4 ± 0.36 µM,9.79 ± 0.87 µM,2.86 ± 0.76 µM,12.5 ± 0.48 µM,1.42 ± 0.23 µM
0.88 ± 0.19 µM,149 to 150 °C,1.03 µM,0.2 ± 0.05 µM,26.6 ± 3.37 µM,,,"CN1CCN(c2ccc(Nc3nc(Nc4ccc(Cl)c(F)c4)c4ncn(CC5CC5)c4n3)cc2)CC1 [Compound 4l, N^6-(4-Chloro-3-fluorophenyl)-9-(cyclopropylmethyl)-N^2-(4-(4-methylpiperazin-1-yl)phenyl)-9H-purine-2,6-diamine]",15.4 ± 0.55 µM,3.22 ± 0.74 µM,3.45 ± 1.61 µM,11.2 ± 2.64 µM,2.56 ± 0.64 µM
< 0.58 µM and 0.42 µM,138.5 to 141.3 °C,0.46 µM,1.23 ± 0.02 µM,31.1 ± 2.91 µM,,,"CCCCCn1cnc2c(Nc3ccccc3)nc(Nc3ccc(N4CCN(C)CC4)cc3)nc21 [Compound 5d, N^2-(4-(4-Methylpiperazin-1-yl)phenyl)-9-pentyl-N^6-phenyl-9H-purine-2,6-diamine]",19.1 ± 3.39 µM,3.98 ± 1.06 µM,6.7 ± 2.48 µM,13.8 ± 3.13 µM,1.28 ± 0.38 µM
